Data on six compounds can be found in US20150005320A9, “COMPOUNDS FOR INFLAMMATION AND IMMUNE-RELATED USES” (Synta Pharmaceuticals Corp., priority 2003, published 2015).

The target in assay [1] is CRAC ion channel (Rattus norvegicus, UniProt Q5M848). As to the kind of experiment: Patch clamp inhibition of ICRAC current in RBL cells. It counts as cell-based. The conditions noted are these: whole-cell patch clamp, read-out: IC50 (concentration which inhibits 50% of the ICRAC current). The procedure:
In general, a whole cell patch clamp method was used to examine the effects of a compound of the invention on a channel that mediates Icrac. In such experiments, a baseline measurement was established for a patched cell. Then a compound to be tested was perfused (or puffed) to cells in the external solution and the effect of the compound on Icrac was measured. A compound that modulates Icrac (e.g., inhibits) is a compound that is useful in the invention for modulating CRAC ion channel activity.
Rat basophilic leukemia cells (RBL-2H3) were grown in DMEM media supplemented with 10% fetal bovine serum in an atmosphere of 95% air/5% CO2. Cells were seeded on glass coverslips 1-3 days before use.
Membrane currents of individual cells were recorded using the whole-cell configuration of the patch clamp technique with an EPC10 (HEKA Electronik, Lambrecht, Germany). Electrodes (2-5 MO in resistance) were fashioned from borosilicate glass capillary tubes (Sutter Instruments, Novato, Ca). The recordings were done at room temperature.
Cs-Glutamate 120 mM; CsCl 20 mM; CsBAPTA 10 mM; CsHEPES 10 mM; NaCl 8 mM; MgCl2 1 mM; IP3 0.02 mM; pH=7.4 adjusted with CsOH. (Shielded from light and kept on ice before experiment)
NaCl 138 mM; NaHEPES, 10 mM; CsCl 10 mM; CaCl2 10 mM; Glucose 5.5 mM; KC1-5.4 mM; KH2PO4 0.4 mM; Na2HPO4H2 0.3 mM at pH=7.4 adjusted with NaOH.
Each compound was diluted from a 10 mM stock in series using DMSO (10 μM, 3.2 μM, […], 316 nM, 100 nM, 32 nM). The final DMSO concentration was always kept at 0.1%.
ICRAC currents were monitored every 2 seconds using a 50 msec protocol, where the voltage was ramped from −100 mV to +100 mV. The membrane potential was held at 0 mV between the test ramps. In a typical experiment the peak inward currents would develop within 50-100 seconds. […]
The ICRAC current level was determined by measuring the inward current amplitude at −80 mV of the voltage ramp in an off-line analysis using MATLAB. The ICRAC current inhibition for each concentration was calculated using peak amplitude in the beginning of the experiment from the same cell. […]
Background: The patch-clamp technique gives a direct electrical read-out from membranes.

Assay [2] relates to CRAC ion channel. As to the kind of experiment: Patch clamp inhibition of ICRAC current in primary T cells. The class given is cell-based. The conditions noted are these: primary human T cells, FIG. 1. Here is the method:
Primary T cells were obtained from human whole blood samples by adding 100 μL of RosetteSep® human T cell enrichment cocktail to 2 mL of whole blood. The mixture was incubated for 20 minutes at room temperature, then diluted with an equal volume of PBS containing 2% FBS. The mixture was layered on top of RosetteSep® DM-L density medium and then centrifuged for 20 minutes at 1200 g at room temperature.
The enriched T cells were recovered from the plasma/density medium interface, then washed with PBS containing 2% FBS twice, and used in patch clamp experiments following the procedure described for RBL cells.

For assay [3], the system named is IL-2 production. Briefly: IL-2 production upon PMA/ionomycin stimulation in whole blood from dosed cynomolgus monkeys. The class given is in vivo. The conditions noted are these: cynomolgus monkey, IV 5 mg/kg, 4 hours after dosing, FIG. 3. Here is the method:
(§1) 3 male non-naïve cynomolgus monkeys were fasted overnight prior to and for four (4) hours following each dose. Each monkey was given a single intravenous dose of the appropriate test compound followed by a 1 mL rinse of saline to flush the catheter. The dose was infused over one hour using calibrated syringe pumps. Following a one week washout, the same three monkeys were given a single oral gavage dose of the appropriate test compound dose formulation followed by a 10 mL flush with tap water. Following a second one week washout, the same three monkeys received a second oral dose of the appropriate test compound dose formulation followed by a 10 mL flush with tap water. Following a third one week washout, the same three monkeys received a third oral dose of the appropriate test compound dose formulation followed by a 10 mL flush with tap water. Prior to and at 1, 2, and 4 hours following each dose (measured from the start of dosing for IV doses), blood samples (3 mL/sample for Group 1 and 2 mL/sample for Groups 2 and 3) were drawn into tubes containing sodium heparin and stored at room temperature, and the concentration of the test compounds in each sample was measured. CsA was included as a positive control.

A further assay relates to TNF-α production. As to the kind of experiment: TNF-α production upon PMA/ionomycin stimulation in whole blood from dosed cynomolgus monkeys. The conditions noted are these: cynomolgus monkey, IV 5 mg/kg, 4 hours after dosing, FIG. 4. The class given is in vivo. The procedure:
as §1

Assay [4] concerns IL-2 production. As to the kind of experiment: Inhibition of IL-2 production in PHA-activated Jurkat cells (ELISA). The class given is cell-based. The settings on record: Homo sapiens, 20 h. The procedure:
Jurkat cells were placed in a 96 well plate (0.5 million cells per well in 1% FBS medium) then test compounds of this invention were added at different concentrations. After 10 minutes, the cells were activated with PHA (final concentration 2.5 μg/mL) and incubated for 20 hours at 37° C. under CO2. The final volume was 200 μL. Following incubation, the cells were centrifuged and the supernatants collected and stored at −70° C. prior to assaying for IL-2 production. A commercial ELISA kit (IL-2 Eli-pair, Diaclone Research, Besancon, France) was used to detect production of IL-2, from which dose response curves were obtained. The IC50 value was calculated as the concentration at which 50% of maximum IL-2 production after stimulation was inhibited versus a non-stimulation control.

A value given as a limit tells only on which side of the number the result lay.

Sequence of CRAC ion channel (Rattus norvegicus, UniProt Q5M848) (Q5M848 whole entry, the tested form may be a part): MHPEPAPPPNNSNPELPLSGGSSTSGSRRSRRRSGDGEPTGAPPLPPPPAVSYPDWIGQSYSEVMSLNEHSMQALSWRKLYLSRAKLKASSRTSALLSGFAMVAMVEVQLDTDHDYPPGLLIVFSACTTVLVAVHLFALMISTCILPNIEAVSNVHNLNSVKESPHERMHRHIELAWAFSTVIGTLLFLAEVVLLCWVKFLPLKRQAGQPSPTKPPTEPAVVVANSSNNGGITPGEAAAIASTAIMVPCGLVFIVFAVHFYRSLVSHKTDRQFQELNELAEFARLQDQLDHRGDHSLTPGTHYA
Sequence of CRAC ion channel (Rattus norvegicus, UniProt Q5M848) (P84903 23-685, further chain): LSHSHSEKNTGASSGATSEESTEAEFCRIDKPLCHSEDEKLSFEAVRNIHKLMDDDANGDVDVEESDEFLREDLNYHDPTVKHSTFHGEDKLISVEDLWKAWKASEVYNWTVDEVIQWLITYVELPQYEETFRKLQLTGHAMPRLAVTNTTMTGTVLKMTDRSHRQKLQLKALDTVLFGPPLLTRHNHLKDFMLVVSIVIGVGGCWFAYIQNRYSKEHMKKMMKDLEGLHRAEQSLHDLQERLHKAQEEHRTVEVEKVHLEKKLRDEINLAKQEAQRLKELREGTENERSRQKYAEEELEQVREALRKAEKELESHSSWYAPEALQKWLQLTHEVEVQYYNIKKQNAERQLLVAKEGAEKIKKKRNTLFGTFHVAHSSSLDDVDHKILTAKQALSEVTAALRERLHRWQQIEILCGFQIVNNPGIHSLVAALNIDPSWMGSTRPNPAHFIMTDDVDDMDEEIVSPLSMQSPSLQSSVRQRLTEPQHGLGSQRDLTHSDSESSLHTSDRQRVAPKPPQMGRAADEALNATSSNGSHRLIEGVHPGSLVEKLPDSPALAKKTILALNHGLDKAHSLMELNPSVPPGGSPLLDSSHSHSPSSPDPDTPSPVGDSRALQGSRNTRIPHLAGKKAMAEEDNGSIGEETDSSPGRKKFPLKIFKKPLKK

For `Cc1nnsc1C(=O)Nc1ccc(-c2cc(C(F)(F)F)ccc2Cl)cc1` [Compound 27, 4-Methyl-[1,2,3]thiadiazole-5-carboxylic acid (2′-chloro-5′-trifluoromethyl-biphenyl-4-yl)-amide], at CRAC ion channel [1], the IC50 is 400 nM.
Regarding `COc1ccc(OC)c(-c2ccc(NC(=O)c3cccc(F)c3F)cc2)c1` [Compound 31, N-(2′,5′-Dimethoxy-biphenyl-4-yl)-2,3-difluoro-benzamide], at CRAC ion channel [1], the IC50 is 100 nM. Further, the “inhibition of ICRAC current in primary T cells compared with RBL cells” value in the assay with CRAC ion channel [2] is on record as “inhibits ICRAC current equally well in primary T cells as in RBL cells”. For the same compound, in the assay with IL-2 production [3], the “IL-2 production after IV infusion” value is listed as “significantly inhibit”. The “TNF-α production after IV infusion” value in the assay on TNF-α production is listed as “significantly inhibit”.
For the compound `COc1ccc(C)cc1-c1ccc(NC(=O)c2cccc(F)c2F)cc1` [Compound 46, N-(2′-methoxy-5′-methyl-biphenyl-4-yl)-2,3-difluorobenzamide], the IC50 with IL-2 production [4] (bins in nM) is less than 100 nM.
Still for that read-out and setting: for `Cc1nocc1C(=O)Nc1ccc(-c2cc(C(F)(F)F)ccc2C(F)(F)F)cc1` [Compound 48, 3-methylisoxazole-4-carboxylic acid (2′,5′-bis-trifluoromethyl-biphenyl-4-yl)-amide] the value was 100 to 500 nM.
Consider `O=C(Nc1ccc(-c2cc(C(F)(F)F)ccc2C(F)(F)F)cc1)c1ccnc2ccccc12` [Compound 57, quinoline-4-carboxylic acid (2′,5′-bis-trifluoromethyl-biphenyl-4-yl)-amide], for which the IC50 in the assay with IL-2 production [4] (bin printed with mixed units nM and μM) is 500 to 1000 nM.
For `COc1ccc(Cl)cc1-c1ccc(NC(=O)c2cc(F)c(F)cc2F)cc1` [Compound 84, N-(2′-methoxy-5′-chloro-biphenyl-4-yl)-2,4,5-trifluorobenzamide], the IC50 on CRAC ion channel [1] was determined as 300 nM.
